Consider three compounds from US7968525B1, “Use of RNA interference to validate new termiticide target sites and a method of termite control” (University of Florida Research Foundation, Inc., priority 2007, dated 2011).

In one experiment the test system is exoglucanases. As to conditions: in vitro enzyme assays, earlier work; cited from earlier work.
The next experiment has as its system beta glucosidase. The following applies: in vitro enzyme assays, earlier work; cited from earlier work.
A further experiment deals with termite. As to conditions: bioassays, earlier work; cited from earlier work.
For experiment [1], the system named is R. flavipes workers. Nature of the experiment: Hex-2 dsRNA feeding bioassay with and without JH (morphology, lethal molts). It is filed as in vivo, Reticulitermes flavipes. As to conditions: feeding on Hex-2 dsRNA alone or JH alone. As to the method: dsRNA Feeding bioassays. dsRNA-mediated gene silencing was accomplished using voluntary feeding bioassays. Termites were pre-starved for 12 h to standardize their hunger status before the assay. The bioassay was run by placing groups of 15 worker termites into 35-mm tissue culture dishes that contained 18 mm diam. treated paper towel disks. Multiple and single dose dsRNA regimes were tested. All assays were carried out for 24-d. Paper disk moisture was monitored every other day. Every 8th day, old paper disks were replaced with new ones. These new paper disks were treated exactly the same as previous ones. Feeding (mg/dish) was determined by comparing weights of paper disks before and after confinement with termites, whereas body weight (mg/termite) was measured by comparing termite weights before and after 8-day paper consumption and then by correcting for the number of live termites at the time of sampling. Paper disks were dried in a drying oven before weighing. Mortality, paper consumption, body weight change, and/or presoldier formation were documented every 8th day. The complete experimental design included two colonies (Colony-1 and -2), with three replicate dishes per treatment per colony.
For Cell-1 dsRNA feeding bioassays, the experimental design included two treatments (triple and single dose Cell-1 dsRNA) and a control (3 doses of dsRNA buffer; Ambion; Austin, Tex.). […]

Experiment [2] concerns R. flavipes workers. Nature of the experiment: dsRNA + JH III feeding assay, lethal times by probit analysis. The class given is in vivo, Reticulitermes flavipes. As to conditions: JH III alone. Here is the method:
Six additional developmental genes were targeted by combined dsRNA+JH III treatments: broad, farnesoic acid methyl transferase (FAMET-2), two family 15 cytochrome P450s (Cyp15-1, Cyp15-2), and two vitellogenin genes (Vit-1, Vit-2). dsRNAs corresponding to internal 500 base pair fragments of all six genes (see FIG. 22) were prepared as described under “description of the preferred embodiment”. Twenty μg of dsRNA was applied in 50 μL nanopure water to a penny-sized ([…]) paper disk. The disk was placed in a 5 cm tissue culture dish and 15 worker termites were added. Assays ran for 25 days at 60% relative humidity and 27 degrees C., with water being replenished and mortality/presoldier formation scored every 5th day.
LT50 and LT90 were determined from time-mortality data using probit analysis (SAS software; Cary, N.C.). In this context, the terms LT50 and LT90 refer to the estimated times at which 50% and 90% mortality occurs in response to the various RNAi treatments relative to JH III treatments alone (FIG. 23). Applying the six dsRNAs alone had no significant effects on survivorship. The LT50 and LT90 values for JH III alone were 34.5 and 65.7 days, respectively (as a result of fitness costs from elevated presoldier levels).

For `OC[C@@H]1[C@@H](O[C@@H]2O[C@H](CO)[C@@H](O)[C@H](O)[C@H]2O)[C@H](O)[C@@H](O)c2nccn21` [CBI, cellobioimidazole], the “inhibition of exoglucanases activity” value in the experiment with exoglucanases was “Good to excellent inhibition”. Also, the “inhibition of beta glucosidase activity” value in the experiment on beta glucosidase was “Good to excellent inhibition”. In addition, in the experiment with termite, the termite mortality entry was “only moderate termite mortality”.

Regarding `COC(=O)/C=C(\C)CC/C=C(\C)CC[C@H]1OC1(C)C` [JH III, juvenile hormone III], the caste phenotype induced entry in the experiment on R. flavipes workers [1] is listed as “wildtype caste phenotypes”. For the same compound, the LT50 in the experiment on R. flavipes workers [2] (time to 50% mortality) worked out at 34.5 days. Further, in the experiment with R. flavipes workers [2] (time to 90% mortality), the LT90 came out at 65.7 days.

In the case of fluromethyl cellobiose [FMCB], the “inhibition of exoglucanases activity” value in the experiment with exoglucanases is given as “Good to excellent inhibition”. In addition, the “inhibition of beta glucosidase activity” value with beta glucosidase is reported as “Good to excellent inhibition”. The termite mortality entry in the experiment with termite is recorded as “only moderate termite mortality”.
